Tests used:
[1] = test system: barnyardgrass; assay: Test A pre-/postemergence herbicide test; format: in vivo, Echinochloa crus-galli
Outline: (§1)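 Greenhouse injury scoring (0–100, complete control = 100) at approximately ten days follows simultaneous pre- and postemergence application. Soil received a directed spray after seeding; seedlings of 2–10 cm at the one- to two-leaf stage were sprayed to runoff.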

[2] = test system: large crabgrass; assay: Test A pre-/postemergence herbicide test; format: in vivo, Digitaria sanguinalis
Outline: as §1

[3] = test system: giant foxtail; assay: Test A pre-/postemergence herbicide test; format: in vivo, Setaria faberi
Outline: as §1

[4] = test system: morningglory; assay: Test A pre-/postemergence herbicide test; format: in vivo, Ipomoea spp.
Outline: as §1

[5] = test system: redroot pigweed; assay: Test A pre-/postemergence herbicide test; format: in vivo, Amaranthus retroflexus
Outline: as §1

[6] = test system: velvetleaf; assay: Test A pre-/postemergence herbicide test; format: in vivo, Abutilon theophrasti
Outline: as §1

[7] = test system: barnyardgrass; assay: Test B pre-/postemergence herbicide test; format: in vivo, Echinochloa crus-galli
Outline: (§2)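 Greenhouse pot assay with simultaneous preemergence (treated seed) and postemergence (2–18 cm seedlings) applications of surfactant-containing, non-phytotoxic solvent formulations. Response scored visually 13–15 days later on a 0–100 scale, 100 meaning complete control.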

[8] = test system: Surinam grass; assay: Test B pre-/postemergence herbicide test; format: in vivo, Urochloa decumbens
Outline: as §2

[9] = test system: cocklebur; assay: Test B pre-/postemergence herbicide test; format: in vivo, Xanthium strumarium
Outline: as §2

[10] = test system: corn; assay: Test B pre-/postemergence herbicide test; format: in vivo, Zea mays
Outline: as §2

[11] = test system: large crabgrass; assay: Test B pre-/postemergence herbicide test; format: in vivo, Digitaria sanguinalis
Outline: as §2

[12] = test system: giant foxtail; assay: Test B pre-/postemergence herbicide test; format: in vivo, Setaria faberi
Outline: as §2

[13] = test system: lambsquarters; assay: Test B pre-/postemergence herbicide test; format: in vivo, Chenopodium album
Outline: as §2

[14] = test system: morningglory; assay: Test B pre-/postemergence herbicide test; format: in vivo, Ipomoea coccinea
Outline: as §2

[15] = test system: pigweed; assay: Test B pre-/postemergence herbicide test; format: in vivo, Amaranthus retroflexus
Outline: as §2

[16] = test system: velvetleaf; assay: Test B pre-/postemergence herbicide test; format: in vivo, Abutilon theophrasti
Outline: as §2

[17] = test system: blackgrass; assay: Test B postemergence herbicide test; format: in vivo, Alopecurus myosuroides
Outline: (§3)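 Greenhouse test; postemergence application to plants at 1–4 leaves (2–18 cm); paddy species at 2 leaves; evaluated visually vs controls at 13–15 days; scale 0–100 (100 = complete control).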

[18] = test system: wheat; assay: Test B postemergence herbicide test; format: in vivo, Triticum aestivum; parameters: key to Wheat plant response rating: 0 = no effect, 100 = complete control
Outline: (§4)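 Postemergence plants were sprayed with formulated test chemicals at 2 to 18 cm height (1- to 4-leaf stage); paddy species were grown to the 2-leaf stage. After 13 to 15 days in a greenhouse, injury was rated visually against untreated controls on a 0–100 scale (0 = no effect, 100 = complete control).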

[19] = test system: wild oat; assay: Test B postemergence herbicide test; format: in vivo, Avena fatua
Outline: as §4

[20] = test system: rice; assay: Test B flooded paddy test; format: in vivo, Oryza sativa; conditions: 1000 g ai/ha, scale 0 to 100 (0 no effect, 100 complete control)
Outline: as §3

[21] = test system: small flower umbrella sedge; assay: Test B flooded paddy test; format: in vivo, Cyperus difformis; conditions: 1000 g ai/ha, scale 0 to 100 (0 no effect, 100 complete control)
Outline: as §3

[22] = test system: ducksalad; assay: Test B flooded paddy test; format: in vivo, Heteranthera limosa; conditions: 1000 g ai/ha, scale 0 to 100 (0 no effect, 100 complete control)
Outline: as §3

[23] = test system: barnyardgrass; assay: Test B flooded paddy test; format: in vivo, Echinochloa crus-galli; conditions: 1000 g ai/ha, scale 0 to 100 (0 no effect, 100 complete control)
Outline: as §3

[24] = Postemergence, 500 g ai/ha, 0 to 100 scale, 0 no effect, 100 complete control
[25] = Postemergence, 2000 g ai/ha, 0 to 100 scale, 0 no effect, 100 complete control
[26] = Preemergence, 500 g ai/ha, visual rating, 0 to 100 scale (0 no effect, 100 complete control)
[27] = Preemergence, 2000 g ai/ha, visual rating, 0 to 100 scale (0 no effect, 100 complete control)
[28] = preemergence, 500 g ai/ha, visual injury, 0 to 100 scale (0 no effect, 100 complete control)
[29] = 500 g ai/ha; visual rating 0-100, 0 no effect, 100 complete control; preemergence
[30] = postemergence, 125 g ai/ha; visual rating, scale 0 (no effect) to 100 (complete control)
[31] = postemergence, 500 g ai/ha; visual rating, scale 0 (no effect) to 100 (complete control)
[32] = preemergence, 125 g ai/ha; 0 to 100 scale, 0 is no effect, 100 is complete control
[33] = 125 g ai/ha; 0 is no effect, 100 is complete control; preemergence
[34] = 125 g ai/ha; visual rating, scale 0 (no effect) to 100 (complete control); postemergence
[35] = 500 g ai/ha; visual rating, 0 = no effect, 100 = complete control; preemergence
[36] = postemergence, 500 g ai/ha; scale 0 to 100, 0 is no effect, 100 is complete control

## CCCCNS(=O)(=O)c1cccc(NC(=O)c2cc(C(C)(C)C)nn2C)c1 [Compound 125]
[1]; [24]
  Barnyardgrass plant response rating: 0
[1]; [25]
  Plant response rating, Barnyardgrass: 0
[1]; [26]
  Barnyardgrass plant response rating: 0
[1]; [27]
  Barnyardgrass plant response rating: 0
[2]; [24]
  Crabgrass, Large plant response rating: 0
[2]; [25]
  Plant response rating, Crabgrass, Large: 0
[2]; [26]
  Crabgrass, Large plant response rating: 0
[2]; [27]
  Crabgrass, Large plant response rating: 0
[3]; [24]
  Foxtail, Giant plant response rating: 0
[3]; [25]
  Plant response rating, Foxtail, Giant: 0
[3]; [26]
  Foxtail, Giant plant response rating: 0
[3]; [27]
  Foxtail, Giant plant response rating: 0
[4]; [24]
  Morningglory plant response rating: 0
[4]; [25]
  Plant response rating, Morningglory: 0
[4]; [26]
  Morningglory plant response rating: 0
[4]; [27]
  Morningglory plant response rating: 0
[5]; [24]
  Pigweed plant response rating: 20
[5]; [25]
  Plant response rating, Pigweed: 20
[5]; [27]
  Pigweed plant response rating: 0
[5]; [28]
  Pigweed plant response rating: 0
[6]; [24]
  Velvetleaf plant response rating: 0
[6]; [25]
  Plant response rating, Velvetleaf: 0
[6]; [27]
  Velvetleaf plant response rating: 0
[6]; [28]
  Velvetleaf plant response rating: 0
[7]; [29]
  Plant response rating, Barnyardgrass: 0
[7]; [30]
  Barnyardgrass plant response rating: 0
[7]; [31]
  Barnyardgrass plant response rating: 0
[7]; [32]
  Plant response rating, Barnyardgrass: 0
[8]; [29]
  Plant response rating, Surinam Grass: 0
[8]; [30]
  Surinam Grass plant response rating: 0
[8]; [31]
  Surinam Grass plant response rating: 10
[8]; [32]
  Plant response rating, Surinam Grass: 0
[9]; [29]
  Plant response rating, Cocklebur: 0
[9]; [30]
  Cocklebur plant response rating: 0
[9]; [31]
  Cocklebur plant response rating: 0
[9]; [32]
  Plant response rating, Cocklebur: 0
[10]; [29]
  Plant response rating, Corn: 0
[10]; [30]
  Corn plant response rating: 0
[10]; [31]
  Corn plant response rating: 0
[10]; [32]
  Plant response rating, Corn: 0
[11]; [29]
  Plant response rating, Crabgrass, Large: 0
[11]; [30]
  Crabgrass, Large plant response rating: 0
[11]; [31]
  Crabgrass, Large plant response rating: 0
[11]; [32]
  Plant response rating, Crabgrass, Large: 0
[12]; [29]
  Plant response rating, Foxtail, Giant: 0
[12]; [30]
  Foxtail, Giant plant response rating: 0
[12]; [31]
  Foxtail, Giant plant response rating: 0
[12]; [32]
  Plant response rating, Foxtail, Giant: 0
[13]; [29]
  Plant response rating, Lambsquarters: 0
[13]; [30]
  Lambsquarters plant response rating: 0
[13]; [31]
  Lambsquarters plant response rating: 20
[13]; [32]
  Plant response rating, Lambsquarters: 0
[14]; [30]
  Morningglory plant response rating: 0
[14]; [31]
  Morningglory plant response rating: 0
[14]; [32]
  Plant response rating, Morningglory: 0
[15]; [29]
  Plant response rating, Pigweed: 0
[15]; [30]
  Pigweed plant response rating: 0
[15]; [31]
  Pigweed plant response rating: 0
[15]; [32]
  Plant response rating, Pigweed: 0
[16]; [29]
  Plant response rating, Velvetleaf: 0
[16]; [30]
  Velvetleaf plant response rating: 0
[16]; [31]
  Velvetleaf plant response rating: 0
[16]; [32]
  Plant response rating, Velvetleaf: 0
[17]; [30]
  Blackgrass plant response rating: 0
[17]; [31]
  Blackgrass plant response rating: 0
[18]; [30]
  Wheat plant response rating: 0
[18]; [31]
  Wheat plant response rating: 0
[19]; [30]
  Oat, Wild plant response rating: 0
[19]; [31]
  Oat, Wild plant response rating: 0
[20]; visual rating, 13 to 15 days
  Rice plant response rating: 0
[21]; visual rating, 13 to 15 days
  Sedge, Umbrella plant response rating: 0
[22]; visual rating, 13 to 15 days
  Ducksalad plant response rating: 0
[23]; visual rating, 13 to 15 days
  Barnyardgrass plant response rating: 0

## CCn1nc(C(C)(C)C)cc1C(=O)Nc1cc(OC)ccc1F [Compound 347]
[1]; [24]
  Barnyardgrass plant response rating: 0
[1]; [25]
  Plant response rating, Barnyardgrass: 0
[1]; [27]
  Barnyardgrass plant response rating: 0
[1]; [28]
  Barnyardgrass plant response rating: 0
[2]; [24]
  Crabgrass, Large plant response rating: 0
[2]; [25]
  Plant response rating, Crabgrass, Large: 0
[2]; [27]
  Crabgrass, Large plant response rating: 0
[2]; [28]
  Crabgrass, Large plant response rating: 0
[3]; [24]
  Foxtail, Giant plant response rating: 0
[3]; [25]
  Plant response rating, Foxtail, Giant: 0
[3]; [27]
  Foxtail, Giant plant response rating: 0
[3]; [28]
  Foxtail, Giant plant response rating: 0
[4]; [24]
  Morningglory plant response rating: 0
[4]; [25]
  Plant response rating, Morningglory: 0
[4]; [27]
  Morningglory plant response rating: 0
[4]; [28]
  Morningglory plant response rating: 0
[5]; [24]
  Pigweed plant response rating: 0
[5]; [25]
  Plant response rating, Pigweed: 0
[5]; [27]
  Pigweed plant response rating: 0
[5]; [28]
  Pigweed plant response rating: 0
[6]; [24]
  Velvetleaf plant response rating: 0
[6]; [25]
  Plant response rating, Velvetleaf: 0
[6]; [27]
  Velvetleaf plant response rating: 0
[6]; [28]
  Velvetleaf plant response rating: 0
[7]; [33]
  Plant response rating (0 to 100 scale), Barnyardgrass: 0
[7]; [34]
  Barnyardgrass plant response rating: 0
[7]; [35]
  Plant response rating, Barnyardgrass: 0
[7]; [36]
  Barnyardgrass plant response rating: 0
[8]; [33]
  Plant response rating (0 to 100 scale), Surinam Grass: 0
[8]; [34]
  Surinam Grass plant response rating: 0
[8]; [35]
  Plant response rating, Surinam Grass: 0
[8]; [36]
  Surinam Grass plant response rating: 0
[9]; [33]
  Plant response rating (0 to 100 scale), Cocklebur: 0
[9]; [34]
  Cocklebur plant response rating: 0
[9]; [35]
  Plant response rating, Cocklebur: 0
[9]; [36]
  Cocklebur plant response rating: 0
[10]; [33]
  Plant response rating (0 to 100 scale), Corn: 0
[10]; [34]
  Corn plant response rating: 0
[10]; [35]
  Plant response rating, Corn: 0
[10]; [36]
  Corn plant response rating: 0
[11]; [33]
  Plant response rating (0 to 100 scale), Crabgrass, Large: 0
[11]; [34]
  Crabgrass, Large plant response rating: 0
[11]; [35]
  Plant response rating, Crabgrass, Large: 0
[11]; [36]
  Crabgrass, Large plant response rating: 0
[12]; [33]
  Plant response rating (0 to 100 scale), Foxtail, Giant: 0
[12]; [34]
  Foxtail, Giant plant response rating: 0
[12]; [35]
  Plant response rating, Foxtail, Giant: 0
[12]; [36]
  Foxtail, Giant plant response rating: 0
[13]; [33]
  Plant response rating (0 to 100 scale), Lambsquarters: 0
[13]; [34]
  Lambsquarters plant response rating: 10
[13]; [35]
  Plant response rating, Lambsquarters: 0
[13]; [36]
  Lambsquarters plant response rating: 10
[14]; [33]
  Plant response rating (0 to 100 scale), Morningglory: 0
[14]; [34]
  Morningglory plant response rating: 0
[14]; [35]
  Plant response rating, Morningglory: 0
[14]; [36]
  Morningglory plant response rating: 10
[15]; [33]
  Plant response rating (0 to 100 scale), Pigweed: 0
[15]; [34]
  Pigweed plant response rating: 0
[15]; [35]
  Plant response rating, Pigweed: 0
[15]; [36]
  Pigweed plant response rating: 10
[16]; [33]
  Plant response rating (0 to 100 scale), Velvetleaf: 0
[16]; [34]
  Velvetleaf plant response rating: 0
[16]; [36]
  Velvetleaf plant response rating: 0
[17]; [34]
  Blackgrass plant response rating: 30
[17]; [36]
  Blackgrass plant response rating: 30
[18]; [34]
  Wheat plant response rating: 0
[18]; [36]
  Wheat plant response rating: 0
[19]; [34]
  Oat, Wild plant response rating: 0
[19]; [36]
  Oat, Wild plant response rating: 20
[20]
  Rice plant response rating: 0
[21]
  Sedge, Umbrella plant response rating: 0
[22]
  Ducksalad plant response rating: 0
[23]
  Barnyardgrass plant response rating: 0
